Measurements as given in patent publication US8436016B2, “Fused heterocyclic M1 receptor positive allosteric modulators” (priority 2008, dated 2013).

The compounds below were run against T1, acetylcholine muscarinic M1 receptor (Homo sapiens, UniProt P11229) (assay: muscarinic FLIPR assay: potentiation of acetylcholine (EC20)-stimulated intracellular Ca2+ in CHOnfat/hM1 cells). Details: not given.
T1 construct: expressed in transfected cells; host or cells: CHOnfat (CHO cells with an NFAT reporter background) expressing hM1, kept under Geneticin selection
T1 sequence (P11229 1-460): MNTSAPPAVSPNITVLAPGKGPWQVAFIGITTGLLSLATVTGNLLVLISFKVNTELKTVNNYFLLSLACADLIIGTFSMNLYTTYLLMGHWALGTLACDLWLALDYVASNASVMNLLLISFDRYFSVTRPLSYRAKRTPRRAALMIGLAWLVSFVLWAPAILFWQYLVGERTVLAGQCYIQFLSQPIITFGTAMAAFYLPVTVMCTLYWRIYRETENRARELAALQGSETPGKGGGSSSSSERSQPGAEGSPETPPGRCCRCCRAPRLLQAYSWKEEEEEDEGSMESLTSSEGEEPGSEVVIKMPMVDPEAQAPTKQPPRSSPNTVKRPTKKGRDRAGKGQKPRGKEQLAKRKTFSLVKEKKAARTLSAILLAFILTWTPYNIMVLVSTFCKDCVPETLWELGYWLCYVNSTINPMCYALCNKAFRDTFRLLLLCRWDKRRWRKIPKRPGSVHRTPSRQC
Assay type: cell-based
Experimental: The assay studies the effect of one or several concentrations of test compounds on basal or acetylcholine-stimulated Ca^2+ levels using FLIPR.
Compounds are prepared and subjected to a preincubation period of 4 min. Thereafter, a single EC20 concentration of acetylcholine is added to each well (3 nM final). The intracellular Ca^2+ level of each sample is measured and compared to an acetylcholine control to determine any modulatory activity.
Cells: CHOnfat/hM1, hM2, hM3 or hM4 cells are plated 24 hr before the assay at a density of 18,000 cells/well (100 μL) in a 384 well plate. CHOnfat/hM1 and CHOnfat/hM3 Growth Medium: 90% DMEM (Hi Glucose); 10% HI FBS; 2 mM L-glutamine; 0.1 mM NEAA; Pen-Strep; and 1 mg/ml Geneticin, are added. For M2Gqi5CHOnfat and M4Gqi5CHOnfat cells, an additional 600 μg/ml hygromycin is added.
Buffers. […] Dye Loading Buffer: Assay Buffer plus 1% Fetal Bovine Serum and Fluo-4AM/Pluronic Acid Mixture. […] 20% Pluronic Acid Solution stock, with a concentration of 0.04% in Buffer, 0.02% in Assay.
65 μL of 2 mM Fluo-4AM are mixed with 130 μL of 20% Pluronic Acid. The resulting solution and 650 μL FBS is added to the assay buffer for a total volume of 65 mL. Positive Controls: 4-Br-A23187: 10 mM in DMSO; final concentration 10 μM. Acetylcholine: 10 mM in water, working stock at both 20 μM and 30 μM in assay buffer, final concentration of 10 μM. This is used to check the maximum stimulation of the CHOK1/hM1 cells. 20 μM (2×) acetylcholine is added in the preincubation part of the assay, and the 30 μM (3×) stock is added in the second part. (EC20)Acetylcholine: 10 mM in water, working stock of 9 nM (3×), and final concentration in assay is 3 nM. This is used after the preincubation with test compounds. Addition of the EC20 Acetylcholine to each well with a test compound will ascertain any modulator activity. 24 wells contain 3 nM Acetylcholine alone as a control.
Determining Activity of Putative Compounds:
Four 96-well plates are combined into a 384-well plate using Mosquito Nanolitre Pipetting System by transferring 1 μl of serial diluted compounds to each well, and 1 mM acetylcholine (100× stock concentration) were added as a control. Using Term, 49 μl assay buffer is added to each well of the 384-well plate right before assay.
In a 96-well Whatman 2 ml Uniplate, 9 nM Acetylcholine (3×) is pipetted into wells corresponding to the screening compounds and into control wells. The 30 μM acetylcholine control (3×) is added into control wells and the 3× agonist plate is transferred into a 384-well plate.
Cells are washed three times with 100 μL of buffer, leaving 30 μL of buffer in each well. Using Multimek, 30 μL of Dye Loading Buffer is added into each well and incubated at 37° C., 5% CO2 for up to one hr.
After 60 min, the cells are washed three times with 100 μL of buffer, leaving 30 μL of buffer in each well. The cell plate, screening plate, and agonist addition plates are placed on the platform in the FLIPR and the door is closed. A signal test to check background fluorescence and basal fluorescence signal is performed. Laser intensity is adjusted if necessary.
4 min of preincubation with the test compounds is provided to determine any agonist activity on the M1 receptor by comparison to the 1 mM acetylcholine control. After preincubation, the EC20 value of acetylcholine (3 nM final) is added to determine any modulator activity.
The inflection point is calculated from the FLIPR values, and is a measure of activity.

Compound	EC50 [µM]
O=C1Cc2cc(Cn3cc(C(=O)O)c(=O)c4c(F)cccc43)ccc2N1 [Example 53]	0.038
O=C(O)c1cn(Cc2cc3ccccc3[nH]2)c2cccc(F)c2c1=O [Example 58]	0.656
O=C(O)c1cn(Cc2ccc3[nH]ccc3c2)c2cccc(F)c2c1=O [Example 33]	0.093
O=C(O)c1cn(Cc2ccc3c(c2)OCCO3)c2cccc(F)c2c1=O [Example 27]	0.029
O=C(O)c1cn(Cc2ccc3ccccc3c2)c2c(F)cccc2c1=O [Example 4]	0.08
Cn1ncc2cc(Cn3cc(C(=O)O)c(=O)c4c(F)cccc43)ccc21 [Example 1, 5-Fluoro-1-[(1-methyl-1H-indazol-5-yl)methyl]-4-oxo-1,4-dihydroquinoline-3-carboxylic acid]	0.072

Same assay, conditions: CHOnfat/hM1 cells, FLIPR, 4 min preincubation, then EC20 acetylcholine (3 nM final); read-out: IP Value (inflection point)

Compound	EC50 [µM]
O=C(O)c1cn(Cc2ccc3nccnc3c2)c2cccc(F)c2c1=O [Example 15]	0.501
O=C(O)c1cn(Cc2ccc3cc(F)ccc3c2)c2cccc(F)c2c1=O [Example 3, 5-Fluoro-1-[(6-fluoro-2-naphthyl)methyl]-4-oxo-1,4-dihydroquinoline-3-carboxylic acid]	0.261
O=C(O)c1cn(Cc2cccc3ccncc23)c2cccc(F)c2c1=O [Example 73]	1.3
O=C(O)c1cn(Cc2ccc3[nH]cnc3c2)c2cccc(F)c2c1=O [Example 42]	0.229
O=C(O)c1cn(Cc2cc3ccccc3s2)c2cccc(F)c2c1=O [Example 56]	0.147
